Experimental data published in patent US8486900B2, “Method for preparing a Centella asiatica extract rich in madecassoside and in terminoloside” (Bayer Consumer Care AG, priority 2002, dated 2013).
Where “and” joins values, the source holds several entries; their conditions need not be identical. Equal entries are not always repeated.

What was measured:
NFκB = test: TNF-α-induced activation of NFκB in nuclei of normal human fibroblasts; type: cell-based
Experimental: This study makes it possible to evaluate the effects of the mixture according to the invention on the activation of NFκB, using a very sensitive specific method based on measuring the binding of the transcription factor NFκB to the consensus oligonucleotide sequence immobilized on a plastic support. Bound NFκB is secondarily recognized by a specific anti-NFκB antibody. This assay was carried out on isolated nuclei of normal human fibroblasts. The culture medium is DMEM, which comprises: • 2 mM L-glutamine • 50 IU/ml penicillin, 50 μg/ml streptomycin • 10% (v/v) fetal calf serum for the preculture and then a switch to serum-free medium The fibroblasts were precultured in 175 cm^2 flasks in DMEM medium containing 10 vol % of FCS until confluency, and the culture medium was then replaced with serum-free DMEM medium. The cells were then cultured in the presence of the products to be assayed or of references, for 1 hour. The proinflammatory agent […] (TNF-α, at 25 ng/ml final concentration; Sigma T0157) was then added to the culture medium and the cells were again incubated for 1 hour at 37° C. and 5% CO2. After incubation, the cells were harvested on ice and the cell nuclei of the various samples were isolated using the Sigma NUC-101 kit according to the protocol recommended by the supplier. The amount of proteins of each nuclear extract was determined using the Biorad 500-0116 assay kit. The amount of activated NFκB bound to the specific oligonucleotide was measured on the same amount of nuclear extract of each sample, i.e. 50 μl, diluted 50/50, after visualization using a specific anti-NFκB antibody. […] AU represents the arbitrary units of NFκB in the extract; this is the difference between the measured value and the background noise.

human fibroblasts = test: Cytotoxicity, Neutral Red assay on human fibroblasts; conditions: for Viability (24 h) / Viability (48 h): DMSO 1%
Experimental: A stock solution of the product was prepared beforehand in DMSO and then diluted in culture medium in order to obtain the various test solutions (final concentration of DMSO: 1%). A broad range of 8 concentrations [from 5 to 1000 μg/ml] was initially studied in order to close in the maximum NonCytotoxic Dose (NCD).
A stock solution of the product was prepared beforehand in DMSO and then diluted in culture medium in order to obtain the various test solutions (final concentration of the DMSO: 1%). A broad range of 8 concentrations (between […]) was studied on human fibroblasts in order to close in the maximum NonCytotoxic Dose (NCD).

MMP-1 = test: TNF-α-induced production of MMP-1 by human fibroblasts in collagen gel (dermis equivalent); type: cell-based; conditions: for Production of MMP-1, (+) TNF-α, mean: TNF-α 10 ng/ml, 24 h pretreatment + 24 h; for decrease in the amount of MMP-1: relative to (+)TNF-α control
Experimental: (§1) An in vitro experimental approach based on measuring the amounts of MMP-1 and of TIMP-1 released into the culture media by human fibroblasts cultured in the absence and in the presence of the products, and stimulated with TNF-α, is proposed. The study was carried out on human fibroblast cultures established from skin biopsies according to the explant method. The fibroblasts are cultured, according to the techniques used in the laboratory, in DMEM medium (sold under the name Invitrogen™ by the company Life Technologies) supplemented with fetal calf serum (10% FCS) and with antibiotics, at […] in a humid air-CO2 (95%-5%) atmosphere.
Human dermal fibroblasts cultured as a monolayer are detached from their support by trypsinization and suspended in complete medium. After counting, the cell suspension is diluted in culture medium and added, in defined proportions, to a mixture of concentrated culture medium (1.76×DMEM), fetal calf serum (FCS) and type I collagen (acetic acid extract from rat tail tendons). The mixture is then poured, under cold conditions, into 24-well plates in a proportion of 1 ml/well. The dermous equivalents are then placed at 37° C. and incubated for 72 h, in an air-CO2 (95%/5%) atmosphere. The gels gradually contract under the action of the fibroblasts.
72 hours after seeding, the culture medium is removed and replaced with new medium containing the various products being studied (“preventative” treatment). The gels are returned to the incubator at 37° C. and incubated, for 24 hours, in an air-CO2 (95%/5%) atmosphere.
(§2) After incubation, the plates are emptied. The cultures are rinsed and then exposed to a solution of TNF-α (10 ng/ml) in the absence (control cultures) or in the presence (treated cultures) of the various concentrations of each product being studied. After the addition of TNF-α, the cultures are returned to the incubator at 37° C. for 24 h. At the end of incubation, the media are removed, centrifuged and aliquoted for assaying of MMP-1 and of TIMP-1.
(§3) The study was carried out on human fibroblasts cultured in a three-dimensional gel of collagen (dermous equivalent).
1. Treatment of cells for 24 h, before induction of MMP-1 with TNF-α.
2. Induction of MMP-1 by the addition of TNF-α (10 ng/ml). Incubation for 24 h.
(§4) 3. Measurement of cell viability and of the amounts of MMP-1 in the control and treated culture supernatants.

TIMP-1 = test: Production of TIMP-1 by human fibroblasts in collagen gel stimulated with TNF-α; type: cell-based; conditions: for Production of TIMP-1, (+) TNF-α, mean: TNF-α 10 ng/ml
Experimental: as §1, §2
The amount of TIMP-1, an inhibitor specific for MMP-1, was also measured in the supernatants of the cultures treated with asiaticoside or the madecassoside-terminoloside mixture.

[1] = tested on: human fibroblasts cultured in a three-dimensional gel of collagen; test: Cell viability (Neutral Red assay) of collagen gel fibroblast cultures after TNF-α; type: cell-based; conditions: TNF-α 10 ng/ml, 0.2-1.0 mg/ml
Experimental: as §3, §4
Cell Viability (Neutral Red Assay)

IL-1α = test: Effect of interferon-γ on intracellular IL-1α production by normal human keratinocytes; type: cell-based; design: multiplication of the basal amount of IL-1α: dose or concentration left out as unconfirmed
Excerpt: The effects of interferon-gamma (IFN-γ) on the production and release of epidermal cytokines was studied on normal human keratinocytes (strain K02-1H4).

PGE-2 = test: Effect of interferon-γ on release of PGE-2 by normal human keratinocytes; type: cell-based
Experimental: (§5) The effects of interferon-gamma (IFN-γ) on the production and release of epidermal cytokines was studied on normal human keratinocytes (strain K02-1H4). 4 concentrations of IFN-g were tested:
The effects of IFN-γ on the production and release of PGE-2 was studied under the same experimental conditions as previously described (Table 31).

IL-8 = test: Effect of interferon-γ on production and release of IL-8 by normal human keratinocytes; type: cell-based
Experimental: (§6) The study is carried out on normal human keratinocytes. The cells are first treated with 4 concentrations of interferon-gamma (IFN-γ), for 24 hours.
(§7) Next, the inflammation mediators are measured in the control cultures and cultures treated with IFN-γ, by assaying IL-8 and TNF-α in the culture supernatants and by assaying cell proteins. The method of measurement used is the Coomassie blue test; it is a standardized method.
as §5
The effects of IFN-γ on the production and release of IL-8 were studied under the same experimental conditions.

TNF-α = test: Effect of interferon-γ on production of TNF-α by normal human keratinocytes; type: cell-based; conditions: for TNF-α, mean: normal human keratinocytes, 24 h
Experimental: as §6, §7

[2] = TNF-α 25 ng/ml, 0.1 μM dexamethasone
[3] = K02-1H4, interferon-γ 1000 U/ml
[4] = K02-1H4, interferon-γ 2000 U/ml

## C[C@@H]1C[C@H]2[C@@H]3CCC4=CC(=O)C=C[C@]4(C)[C@@]3(F)[C@@H](O)C[C@]2(C)[C@@]1(O)C(=O)CO [dexamethasone, Dexamethasone]
NFκB; 0.1 μM
  nuclear translocation of NFκB induced by TNF-α: did not inhibit
NFκB; [2]
  NFκB (AU), mean: 9.46 AU
  NFκB (AU), single values: 10.94 AU and 7.3 AU and 9.90 AU and 9.67 AU
NFκB; TNF-α 25 ng/ml, 0.1 μM dexamethasone, control with TNF-α = 100
  NFκB, % control: 99%

## C[C@H]1[C@H](C)CC[C@]2(C(=O)O[C@@H]3O[C@H](CO[C@@H]4O[C@H](CO)[C@@H](O[C@@H]5O[C@H](C)[C@H](O)[C@@H](O)[C@H]5O)[C@H](O)[C@H]4O)[C@@H](O)[C@H](O)[C@H]3O)CC[C@]3(C)C(=CC[C@@H]4[C@@]5(C)C[C@@H](O)[C@H](O)[C@@](C)(CO)[C@@H]5CC[C@]43C)[C@H]12 [Asiaticoside, asiaticoside]
Human fibroblasts
  Maximum NonCytotoxic Dose (NCD): 1 mg/mL
Human fibroblasts; 48 h, 1 mg/ml
  decrease of cell viability: 12%
Human fibroblasts; 10
  Viability (24 h): 98%
Human fibroblasts; 25
  Viability (24 h): 101%
Human fibroblasts; 50
  Viability (24 h): 101%
Human fibroblasts; 100
  Viability (24 h): 101%
Human fibroblasts; 250
  Viability (24 h): 101%
Human fibroblasts; 500
  Viability (24 h): 97%
Human fibroblasts; 1000
  Viability (24 h): 93%
Human fibroblasts; 48 h, 10
  Viability (48 h): 108%
Human fibroblasts; 48 h, 25
  Viability (48 h): 107%
Human fibroblasts; 48 h, 50
  Viability (48 h): 106%
Human fibroblasts; 48 h, 75
  Viability (48 h): 104%
Human fibroblasts; 48 h, 100
  Viability (48 h): 102%
Human fibroblasts; 48 h, 250
  Viability (48 h): 99%
Human fibroblasts; 48 h, 500
  Viability (48 h): 93%
Human fibroblasts; 48 h, 750
  Viability (48 h): 90%
Human fibroblasts; 48 h, 1000
  Viability (48 h): 88%
Human fibroblasts; contact for 24 h, 5 to 1000 μg/ml
  cytotoxic effect: no significant cytotoxic effect
Human fibroblasts; incubation for 48 h
  nontoxic concentrations: below 1 mg/ml
MMP-1; 0.2 mg/ml
  Production of MMP-1, (+) TNF-α, mean: 9.96 ng MMP-1/ml
MMP-1; 0.5 mg/ml
  Production of MMP-1, (+) TNF-α, mean: 6.18 ng MMP-1/ml
MMP-1; 1.0 mg/ml
  Production of MMP-1, (+) TNF-α, mean: 3.40 ng MMP-1/ml
MMP-1; C1 = 0.2 mg/ml
  decrease in the amount of MMP-1: 18%
MMP-1; C2 = 0.5 mg/ml
  decrease in the amount of MMP-1: 49%
MMP-1; C3 = 1.0 mg/ml
  decrease in the amount of MMP-1: 72%
TIMP-1; 0.2 mg/ml
  Production of TIMP-1, (+) TNF-α, mean: 51.01 ng TIMP-1/ml
TIMP-1; 0.5 mg/ml
  Production of TIMP-1, (+) TNF-α, mean: 50.36 ng TIMP-1/ml
TIMP-1; 1.0 mg/ml
  Production of TIMP-1, (+) TNF-α, mean: 48.82 ng TIMP-1/ml
TIMP-1; within the range of concentrations tested (0.2-1.0 mg/ml)
  effect with respect to the production of TIMP-1: no effect
[1]
  viability of the treated cultures after treatment with TNF-α: not modified
Solubility
  solubility: organosoluble

## Interferon-γ: interferon-gamma used as irritative agent to stimulate keratinocytes
IL-1α; IFN-γ 1000
  multiplication of the basal amount of IL-1α: 2.6 fold
IL-1α; IFN-γ 2000
  multiplication of the basal amount of IL-1α: 3.8 fold
IL-1α; K02-1H4, interferon-γ 100 U/ml
  IL-1α (intracellular), mean: 6.80 pg/μg proteins
IL-1α; K02-1H4, interferon-γ 500 U/ml
  IL-1α (intracellular), mean: 8.29 pg/μg proteins
IL-1α; [3]
  IL-1α (intracellular), mean: 11.21 pg/μg proteins
IL-1α; [4]
  IL-1α (intracellular), mean: 12.48 pg/μg proteins
PGE-2; 100 to 2000 U/ml
  stimulation of the production and release of PGE-2: not capable of stimulating
PGE-2; K02-1H4, interferon-γ 100 U/ml
  Extracellular PGE-2, mean: 3.60 pg/μg proteins
PGE-2; K02-1H4, interferon-γ 500 U/ml
  Extracellular PGE-2, mean: 3.45 pg/μg proteins
PGE-2; [3]
  Extracellular PGE-2, mean: 3.48 pg/μg proteins
PGE-2; [4]
  Extracellular PGE-2, mean: 3.80 pg/μg proteins
IL-8; Example 8, interferon 1000 U/ml
  multiplication of the basal amount of IL-8: 26 fold
IL-8; Example 8, interferon 2000 U/ml
  multiplication of the basal amount of IL-8: 38 fold
IL-8; Example 8, normal human keratinocytes, 24 h, interferon-γ 100 U/ml
  IL-8, mean: 0.980 pg/μg proteins
IL-8; Example 8, normal human keratinocytes, 24 h, interferon-γ 500 U/ml
  IL-8, mean: 1.301 pg/μg proteins
IL-8; Example 8, normal human keratinocytes, 24 h, interferon-γ 1000 U/ml
  IL-8, mean: 1.991 pg/μg proteins
IL-8; Example 8, normal human keratinocytes, 24 h, interferon-γ 2000 U/ml
  IL-8, mean: 2.917 pg/μg proteins
IL-8; Example 12, K02-1H4, interferon-γ 100 U/ml
  IL-8, mean: 0.252 pg/μg proteins
IL-8; Example 12, K02-1H4, interferon-γ 500 U/ml
  IL-8, mean: 0.350 pg/μg proteins
IL-8; Example 12, K02-1H4, interferon-γ 1000 U/ml
  IL-8, mean: 0.516 pg/μg proteins
IL-8; Example 12, K02-1H4, interferon-γ 2000 U/ml
  IL-8, mean: 0.671 pg/μg proteins
TNF-α; interferon 1000 U/ml
  multiplication of the basal amount of TNF-α: 3.3 fold
TNF-α; interferon 2000 U/ml
  multiplication of the basal amount of TNF-α: 4.5 fold
TNF-α; interferon-γ 100 U/ml
  TNF-α, mean: 3.198 pg/μg proteins
TNF-α; interferon-γ 500 U/ml
  TNF-α, mean: 8.605 pg/μg proteins
TNF-α; interferon-γ 1000 U/ml
  TNF-α, mean: 10.773 pg/μg proteins
TNF-α; interferon-γ 2000 U/ml
  TNF-α, mean: 14.545 pg/μg proteins
